Results taken from paper PMC7692337, “Masked Phenolic-Selenium Conjugates: Potent and Selective Antiproliferative Agents Overcoming P-gp Resistance” (Pharmaceuticals, 2020).
Entries after “also recorded” stand apart in the source; their conditions may differ. Like-named read-outs stand apart in the source and are kept apart here.

How the values were obtained:
[1] = system: SW1573 (non-small cell lung); experiment: Antiproliferative activity, NCI protocol; assay type: cell-based, human
Description: (§1) Organochalcogen derivatives prepared herein were evaluated in vitro as potential antiproliferative agents, using a panel of six human tumour cell lines: A549 (non-small cell lung), HBL-100 (breast), HeLa (cervix), SW1573 (non-small cell lung), as drug sensitive lines, T-47D (breast) and WiDr (colon) as drug resistant lines. In addition to precursors 2, 6, 7, 13, 14, 17, 19, ebselen and cisplatin (CDDP) were used as reference drugs. […] In both cases, the NCI protocol, with minor modifications, was followed; selected data, including the selectivity index (S.I.) can be found in Table 3 and full data in Supporting Information (Table S1).
(§2) The in vitro antiproliferative activity was assayed using minor modifications of the protocol of the National Cancer Institute (NCI) of the United States against the six human solid tumor cell and the non-tumor cell lines tested.

[2] = system: A549 (non-small cell lung); experiment: Antiproliferative activity, NCI protocol; assay type: cell-based, human
Description: as §1, §2

[3] = system: HeLa (cervix); experiment: Antiproliferative activity, NCI protocol; assay type: cell-based, human
Description: as §1, §2

[4] = system: HBL-100 (breast); experiment: Antiproliferative activity, NCI protocol; assay type: cell-based, human
Description: as §1, §2

[5] = system: WiDr (colon); experiment: Antiproliferative activity, NCI protocol; assay type: cell-based, human; conditions: read-out: GI50 WiDr (Colon)
Description: as §1, §2

[6] = system: T-47D (breast); experiment: Antiproliferative activity, NCI protocol; assay type: cell-based, human; conditions: read-out: GI50 T-47D (Breast)
Description: as §1, §2

[7] = H2O2 scavenging (phenol red / horseradish peroxidase); conditions: At 50 µM
Description: (§3) In vitro antioxidant properties of key unprotected phenolic derivatives were analyzed using two different methodologies: free radical scavenging capacity, using the DPPH method (2,2-diphenyl-1-picrylhydrazyl), a HAT (hydrogen atom transfer) procedure, widely-used for both natural and synthetic derivatives, and also the capacity for scavenging H2O2, one of the most common ROS in degenerative diseases, including cancer.
Herein, following Bahorun’s methodology, in vitro levels of H2O2 were measured in an indirect fashion, by registering the H2O2-mediated oxidation of phenol red in the presence of horseradish peroxidase, to give a chromophore with a maximum absorption at 610 nm. Accordingly, in the presence of an antioxidant agent, there is an inverse correlation between the observed absorbance, and the scavenging properties. Table 2 depicts the H2O2-scavenging properties of compounds prepared herein, and tested at a final 50 µM concentration.
Reported methodology was used with minor modifications.

[8] = Free radical scavenging (DPPH method); conditions: 30 min incubation, absorbance at 515 nm, read-out: EC50 antiradical activity (DPPH)
Description: as §3
DPPH is a commercially-available stable free radical commonly used for in vitro testing of radical scavenging properties of antioxidants.
Reported methodology was used with minor modifications. To a 60 µM methanolic DPPH solution (1.17 mL), the antioxidant solution (5–7 different solutions, 30 µL) or solvent (control, 30 µL) were added. After 30 min. of incubation in the dark, absorbance was measured at 515 nm, and EC50 values were calculated.

[9] = P-glycoprotein assay, line overexpressing P-gp; assay type: cell-based, human; conditions: human, 48 h exposure
Description: (§4) This assay allows prediction of whether a certain chemotherapeutic agent could develop chemoresistance when behaving as a P-gp substrate, one of the most common efllux-pumps used for the extrusion of cell xenobiotics. For that purpose, a cell line-based assay was used, in particular the lung cancer cell line in its wild type (SW1573), and its variant overexpressing P-gp (Sw1573/Pgp). Moreover, compounds were tested in the presence and in the absence of verapamil, which is known to inhibit P-gp. Chemotherapeutic agents paclitaxel (PTX) and vinblastine (VB) are used herein as reference compounds. In this assay, the resistance factor (Rf) for a certain compound is defined as the ratio of GI50 in the cell line overexpressing P-gp and the wild one (Table 4), high values of Rf denoting that the compound behaves as a P-gp substrate, and thus, chemoresistance through this mechanism will probably take place.

[10] = system: SW1573/Pgp; experiment: P-glycoprotein assay, line overexpressing P-gp; assay type: cell-based, human; conditions: ratio between GI50 values in SW1573/PGP and SW1573 cells; for Rf w Verapamil: with verapamil; for Rf w/o Verapamil: without verapamil
Description: as §4

[11] = system: SW1573; experiment: P-glycoprotein assay, wild type line; assay type: cell-based; conditions: Homo sapiens, 48 h exposure
Description: as §4

[12] = system: six human tumour cell lines (A549, HBL-100, HeLa, SW1573, T-47D, WiDr); experiment: Antiproliferative activity, panel of six human tumour cell lines; assay type: cell-based; conditions: summary over the tested tumour cell lines, highest tested concentration 100 µM
Description: as §1, §2

[13] = Homo sapiens, SW1573, Table S1, read-out: GI50 SW1573 (Lung)
[14] = Homo sapiens, A549; read-out: GI50 A549 (Lung)
[15] = Homo sapiens, HeLa; read-out: GI50 HeLa (Cervix)
[16] = Homo sapiens, HBL-100; read-out: GI50 HBL-100 (Breast)
[17] = Homo sapiens, WiDr, drug resistant line
[18] = Homo sapiens, T47D, drug resistant line
[19] = Homo sapiens, SW1573, read-out: GI50 SW1573 (Lung)
[20] = Homo sapiens, A549, read-out: GI50 A549 (Lung)
[21] = Homo sapiens, HeLa, read-out: GI50 HeLa (Cervix)
[22] = Homo sapiens, HBL-100, read-out: GI50 HBL-100 (Breast)
[23] = with verapamil (concentration not stated), with verapamil, reference drugs, read-out: GI50 SW1573/PGP w Verapamil
[24] = with verapamil, reference drugs, read-out: GI50 SW153 w Verapamil
[25] = without verapamil, reference drugs, read-out: GI50 SW1573 w/o Verapamil
[26] = with verapamil (concentration not stated), with verapamil, read-out: GI50 SW1573/PGP w Verapamil
[27] = without verapamil, read-out: GI50 SW1573/PGP w/o Verapamil
[28] = with verapamil, read-out: GI50 SW153 w Verapamil
[29] = without verapamil, read-out: GI50 SW1573 w/o Verapamil

| EC50 [8] [µM] | Compound | GI50 [1, 13] [µM] | GI50 [2, 14] [µM] | GI50 [3, 15] [µM] | GI50 [4, 16] [µM] | GI50 [5, 17] [µM] | GI50 [6, 18] [µM] | further results |
| --- | --- | --- | --- | --- | --- | --- | --- | --- |
| > 175 | O=C1CCCSSCCCC(=O)Oc2cc(CCO)ccc2O1 [Compound 4, [4”-(2”‘-Hydroxyethyl)-1”,2”-phenylene]-4,4’-dithiobisbutyrate] | > 100 | > 100 | > 100 | > 100 | > 100 | > 100 | % Scavenging of H2O2 [7]: complete loss of ROS scavenging properties; also recorded: --- ^2 |
|  | N#C[Se]CCC(=O)O [Compound 19, 3-Selenocyanatopropanoic acid] |  |  |  |  |  |  | GI50 [1, 19]: > 100 µM; GI50 [2, 20]: 18 ± 6 µM; GI50 [3, 21]: 32 ± 10 µM; GI50 [4, 22]: 93 ± 9 µM; GI50 ([5]; Homo sapiens, WiDr): 28 ± 4 µM; GI50 ([6]; Homo sapiens, T47D): 36 ± 1 µM |
|  | CC[C@]1(O)C[C@@H]2CN(CCc3c([nH]c4ccccc34)[C@@](C(=O)OC)(c3cc4c(cc3OC)N(C)[C@H]3[C@@](O)(C(=O)OC)[C@H](OC(C)=O)[C@]5(CC)C=CCN6CC[C@]43[C@@H]65)C2)C1 [VB, vinblastine, reference compound] |  |  |  |  |  |  | GI50 at 48 h [9, 23]: 0.001 ± 0.0005 µM; Rf w Verapamil [10]: 1.3; Rf w/o Verapamil [10]: 2388; GI50 [11, 24]: 0.0008 ± 0.0002 µM; GI50 [11, 25]: 0.0009 ± 0.0003 µM |
| 11.4 ± 1.2 | NCCc1ccc(O)c(O)c1 [Dopamine, dopamine, reference compound] |  |  |  |  |  |  | % Scavenging of H2O2 [7]: 46.1 ± 4.6% |
|  | c1ccc(C[Se]CCc2ccc3c(c2)OCO3)cc1 [Compound 38, 1-Benzylseleno-2-(3’, 4’-methylenedioxyphenyl)ethane] | 27 ± 5 | 19 ± 2 | 5.2 ± 1 | 14 ± 3 | 14 ± 2 | 4.7 ± 1.2 | GI50 at 48 h [9, 26]: 25 ± 2 µM; GI50 at 48 h [9, 27]: 29 ± 0.2 µM; Rf w Verapamil [10]: 1.6; Rf w/o Verapamil [10]: 1.1; GI50 [11, 28]: 15 ± 3 µM; GI50 [11, 29]: 27 ± 2 µM |
|  | O=C(O)CCC[Se][Se]CCCC(=O)O [Compound 14, 4,4′-Diselenobisbutyric acid] |  |  |  |  |  |  | GI50 [1, 19]: > 100 µM; GI50 [2, 20]: 46 ± 14 µM; GI50 [3, 21]: 44 ± 13 µM; GI50 [4, 22]: > 100 µM; GI50 ([5]; Homo sapiens, WiDr): 54 ± 6 µM; GI50 ([6]; Homo sapiens, T47D): 50 ± 14 µM |
|  | O=c1c2ccccc2[se]n1-c1ccccc1 [Ebselen, 2-phenyl-1,2-benzoselenazol-3-one, reference compound] | 28 ± 4 | 25 ± 9 | 26 ± 8 | 13 ± 3 | > 100 | 90 ± 14 |  |
|  | O=C(O)CC[Se][Se]CCC(=O)O [Compound 13, 3,3′-Diselenobispropanoic acid] | > 100 | 4.1 ± 0.1 | 18 ± 1 | 94 ± 8 | 5.6 ± 0.6 | 20 ± 8 |  |
|  | O=C(O)CSSCC(=O)O [Compound 6, Dithiodiacetic acid] | > 100 | > 100 | > 100 | > 100 | > 100 | > 100 |  |
|  | O=C(O)CCSSCCC(=O)O [Compound 7, 3,3′-Dithiobispropionic acid] | > 100 | > 100 | > 100 | > 100 | > 100 | > 100 |  |
| 4.2 ± 0.1 | O=C(CCSSCCC(=O)NCCc1ccc(O)c(O)c1)NCCc1ccc(O)c(O)c1 [Compound 9, 3,3′-Dithiobis{N-[2′’-(3′’’,4′’’-dihydroxyphenyl)ethyl]propanamide}] | 42 ± 6 | 32 ± 1 | 28 ± 2 | 31 ± 7 | > 100 | 45 ± 19 | GI50 ([12]; Homo sapiens, read-out: GI50 over the tumour cell lines (range, bound or words)): < 45 µM |
| 13.4 ± 0.6 | OCCc1ccc(O)c(O)c1 [HT, hydroxytyrosol, reference compound] |  |  |  |  |  |  |  |
|  | 3-phenylselenopropanoic acid [Compound 17] |  |  |  |  |  |  | GI50 ([1]; Table S1, read-out: GI50 SW1573 (Lung)): > 100 µM; GI50 ([2]; read-out: GI50 A549 (Lung)): > 100 µM; GI50 ([3]; read-out: GI50 HeLa (Cervix)): > 100 µM; GI50 ([4]; read-out: GI50 HBL-100 (Breast)): > 100 µM; GI50 ([5]; drug resistant line): > 100 µM; GI50 ([6]; drug resistant line): > 100 µM |
|  | c1cc2c(cc1CCC[Se][Se]CCCc1ccc3c(c1)OCO3)OCO2 [Compound 41, Bis[3-(3’, 4’-methylenedioxyphenyl)propyl]diselenide] |  |  |  |  |  |  | GI50 [1, 19]: 37 ± 15 µM; GI50 [2, 20]: 32 ± 8 µM; GI50 [3, 21]: 31 ± 8 µM; GI50 [4, 22]: 93 ± 10 µM; GI50 ([5]; Homo sapiens, WiDr): 29 ± 8 µM; GI50 ([6]; Homo sapiens, T47D): 29 ± 5 µM; GI50 over the tumour cell lines (range, bound or words) [12]: only a moderate antiproliferative agent |
|  | CC(=O)O[C@H]1C(=O)[C@@]2(C)[C@H]([C@H](OC(=O)c3ccccc3)[C@]3(O)C[C@H](OC(=O)[C@H](O)[C@@H](NC(=O)c4ccccc4)c4ccccc4)C(C)=C1C3(C)C)[C@]1(OC(C)=O)CO[C@@H]1C[C@@H]2O [PTX, paclitaxel, reference compound] |  |  |  |  |  |  | GI50 at 48 h [9, 23]: 0.0042 ± 0.0009 µM; Rf w Verapamil [10]: 2.6; Rf w/o Verapamil [10]: 128; GI50 [11, 24]: 0.0016 ± 0.0002 µM; GI50 [11, 25]: 0.0015 ± 0.0005 µM |
|  | O=C(O)CCCSSCCCC(=O)O [Compound 2, 4,4′-Dithiobisbuthyric acid] | > 100 | > 100 | > 100 | > 100 | > 100 | > 100 |  |

| Compound | EC50 [8] [µM] | GI50 [1, 13] [µM] | GI50 [2, 14] [µM] | GI50 [3, 15] [µM] | GI50 [4, 16] [µM] | GI50 [5, 17] [µM] | GI50 [6, 18] [µM] | further results |
| --- | --- | --- | --- | --- | --- | --- | --- | --- |
| O=c1c2ccccc2[se]n1CCc1ccc(O)c(O)c1 [Compound 26, N-[2′-(3′’,4′’-Dihydroxyphenyl)ethyl]-1,2-benzisoselenazole-3(2H)-one] | 7.8 ± 0.2 |  |  |  |  |  |  | GI50 [1, 19]: 21 ± 12 µM; GI50 [2, 20]: 21 ± 7 µM; GI50 [3, 21]: 21 ± 6 µM; GI50 [4, 22]: 21 ± 4 µM; GI50 ([5]; Homo sapiens, WiDr): 30 ± 3 µM; GI50 ([6]; Homo sapiens, T47D): 28 ± 6 µM; GI50 over the tumour cell lines (range, bound or words) [12]: moderate antiproliferative properties |
| O=C(CC[Se][Se]CCC(=O)NCCc1ccc(O)c(O)c1)NCCc1ccc(O)c(O)c1 [Compound 15, 3,3′-Diselenobis{N-[2′’-(3′’’,4′’’-dihydroxyphenyl)ethyl]propanamide}] | 7.8 ± 0.2 | 5.9 ± 1.3 | 5.4 ± 1.1 | 3.6 ± 1.1 | 29 ± 6 | 31 ± 7 | 39 ± 5 | % Scavenging of H2O2 [7]: 40.0 ± 3.1%; GI50 at 48 h [9, 26]: 5.3 ± 0.3 µM; GI50 at 48 h [9, 27]: 5 ± 0.1 µM; Rf w Verapamil [10]: 1.1; Rf w/o Verapamil [10]: 1.5; GI50 [11, 28]: 5 ± 0.7 µM; GI50 [11, 29]: 3.3 ± 0.4 µM |
